In this experiment the target is GCN2 (Homo sapiens, UniProt Q9P2K8). Put plainly: SPR, steady state. Type of experiment: binding.

The values that follow come from publication doi:10.1101/2024.08.14.606984v2 (biorxiv, 2024).

Sequence of GCN2 (Q9P2K8 whole entry): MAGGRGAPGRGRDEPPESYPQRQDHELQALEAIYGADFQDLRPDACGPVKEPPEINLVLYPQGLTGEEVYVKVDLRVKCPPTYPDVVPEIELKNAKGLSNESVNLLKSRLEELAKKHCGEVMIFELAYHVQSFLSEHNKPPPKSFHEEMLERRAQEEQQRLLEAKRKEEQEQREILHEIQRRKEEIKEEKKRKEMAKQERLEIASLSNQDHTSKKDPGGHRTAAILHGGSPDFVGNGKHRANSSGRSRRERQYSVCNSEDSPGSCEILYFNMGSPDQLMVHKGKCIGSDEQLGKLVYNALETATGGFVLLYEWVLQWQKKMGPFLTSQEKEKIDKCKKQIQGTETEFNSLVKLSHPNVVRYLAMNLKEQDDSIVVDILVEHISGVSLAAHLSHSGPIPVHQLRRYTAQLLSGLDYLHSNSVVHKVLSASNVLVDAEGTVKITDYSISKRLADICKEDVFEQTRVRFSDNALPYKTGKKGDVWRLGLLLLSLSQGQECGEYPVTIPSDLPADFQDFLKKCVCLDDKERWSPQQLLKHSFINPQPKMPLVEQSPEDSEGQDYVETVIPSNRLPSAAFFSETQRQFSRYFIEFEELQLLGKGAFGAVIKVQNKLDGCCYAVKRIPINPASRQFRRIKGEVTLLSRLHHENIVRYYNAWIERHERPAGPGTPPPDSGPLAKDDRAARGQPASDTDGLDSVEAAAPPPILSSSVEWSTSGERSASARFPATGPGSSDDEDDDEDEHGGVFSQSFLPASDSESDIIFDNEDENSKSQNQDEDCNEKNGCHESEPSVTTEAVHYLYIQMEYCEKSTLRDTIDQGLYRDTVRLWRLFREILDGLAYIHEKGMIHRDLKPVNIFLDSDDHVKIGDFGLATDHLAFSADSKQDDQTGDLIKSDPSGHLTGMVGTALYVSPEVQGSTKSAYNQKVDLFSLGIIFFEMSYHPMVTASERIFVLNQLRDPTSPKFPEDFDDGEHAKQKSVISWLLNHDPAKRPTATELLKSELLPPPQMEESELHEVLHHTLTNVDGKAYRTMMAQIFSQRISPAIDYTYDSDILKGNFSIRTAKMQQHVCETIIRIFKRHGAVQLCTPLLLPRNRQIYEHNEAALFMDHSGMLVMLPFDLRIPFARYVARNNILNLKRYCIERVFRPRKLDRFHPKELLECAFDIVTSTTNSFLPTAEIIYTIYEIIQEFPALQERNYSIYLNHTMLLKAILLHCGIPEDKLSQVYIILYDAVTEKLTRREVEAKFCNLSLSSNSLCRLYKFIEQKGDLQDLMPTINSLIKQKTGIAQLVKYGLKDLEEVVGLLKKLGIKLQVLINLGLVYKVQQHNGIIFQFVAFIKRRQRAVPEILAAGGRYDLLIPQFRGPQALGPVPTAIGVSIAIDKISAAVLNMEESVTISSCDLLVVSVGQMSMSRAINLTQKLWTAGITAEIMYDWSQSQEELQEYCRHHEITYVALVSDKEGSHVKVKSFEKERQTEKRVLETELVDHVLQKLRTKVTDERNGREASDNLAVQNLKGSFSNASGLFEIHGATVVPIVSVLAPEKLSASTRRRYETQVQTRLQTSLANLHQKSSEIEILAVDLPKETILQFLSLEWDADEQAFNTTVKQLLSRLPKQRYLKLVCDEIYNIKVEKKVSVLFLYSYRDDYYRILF

Usually Kd stands for the equilibrium constant for the complex coming apart. As to `CNc1ncc2cc(-c3cc(NC(=O)NCCC(C)(C)C)c(F)cc3C)c(C)nc2n1` [LY-3009120], the Kd was 43.1 ± 2.5 µM.
